Data: PMC5782818 (Bioorganic & medicinal chemistry letters, 2017)

Assays:
VMAT2 [1] = biological target: T1, VMAT2 (Rattus norvegicus, UniProt Q01827); assay: Vesicular [^3H]DA uptake assay; type: biochemical
[2] = test system: sucrose-maintained responding; conditions: rats; cited from earlier work
METH self-administration = conditions: rats; cited from earlier work
VMAT2 [3] = biological target: T1, VMAT2; conditions: cited from earlier work
[4] = cited from earlier work

T1 sequence (Q01827 whole entry): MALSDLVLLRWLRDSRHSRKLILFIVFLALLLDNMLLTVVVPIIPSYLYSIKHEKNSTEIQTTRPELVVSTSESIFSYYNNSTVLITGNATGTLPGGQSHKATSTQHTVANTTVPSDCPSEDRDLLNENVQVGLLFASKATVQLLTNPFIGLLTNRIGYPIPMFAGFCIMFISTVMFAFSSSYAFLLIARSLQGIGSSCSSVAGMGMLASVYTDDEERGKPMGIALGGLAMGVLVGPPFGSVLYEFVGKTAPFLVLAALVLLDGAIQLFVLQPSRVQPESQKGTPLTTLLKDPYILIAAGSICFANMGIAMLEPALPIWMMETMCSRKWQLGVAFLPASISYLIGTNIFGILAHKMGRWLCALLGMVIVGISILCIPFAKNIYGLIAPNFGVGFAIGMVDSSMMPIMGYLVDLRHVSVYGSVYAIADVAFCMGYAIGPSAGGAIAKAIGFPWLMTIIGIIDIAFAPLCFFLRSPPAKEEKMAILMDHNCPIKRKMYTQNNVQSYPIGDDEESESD

## Cl.Cl.FCCOc1ccc(CCN2CCN(CCc3ccccc3Cl)CC2)cc1 [Compound 15f, 1-(2-chlorophenethyl)-4-(4-(2-fluoroethoxy)phenethyl)piperazine]
VMAT2 [1]
  fold less potent at VMAT2 than 15d: 32 fold

## CN1[C@@H](CCc2ccccc2)CCC[C@H]1CCc1ccccc1 [lobelane]
[2]
  effect on sucrose-maintained responding: without decreasing
METH self-administration
  effect on METH self-administration: dose-dependently decreased

## CN1[C@@H](CC(=O)c2ccccc2)CCC[C@H]1C[C@H](O)c1ccccc1 [lobeline]
VMAT2 [3]
  effect on DA uptake into synaptic vesicles via VMAT2: inhibit
[4]
  side-effects in clinical trials: bitter taste and nausea
